Assay results taken from patent US11246896B2, “Tumor-specific adenovirus vectors and therapeutic uses” (priority 2015, dated 2022).

System: RIN, MIN, β-TC1 (INSM1+ insulinomas)
Assay: Cell survival assay (MTS), INSM1-positive insulinoma cells
Assay type: cell-based, rat, mouse
Details: 200 μM GCV, no virus, RTC-1 cells
Procedure: FIGS. 13A-13D illustrate that the oncolytic virus in combination with Ad-INSM1p-HSV-tk increased efficacy of tumor cell killing. An MTS colorimetric assay was conducted to measure the cell survival with 3 insulinoma cell lines: RIN, MIN, β-TC1 (INSM1^+ insulinomas), and Panc-1 (INSM1^− pancreatic epithelioid carcinoma).
FIG. 13D is a graph illustrating cells treated with a combination of Ad-IMSM1p-HSV-tk and Ad-INSM1p-E1A-HSV-tk viruses. Cells were first treated with virus ranging from 0-100 MOI. […] Cell survival was measured by MTS colorimetric analysis at 490 nm. (n=6). […]
FIG. 14D is a graph illustrating cells treated with a combination of Ad-IMSM1p-HSV-tk and Ad-INSM1p-E1A-HSV-tk viruses. […] Cell survival was measured by MTS colorimetric analysis at 490 nm. […]
Cell survival assay. […] Afterwards, cell survival was assessed using […] 96® AQueous One Solution Cell Proliferation Assay (Promega, cat. no. G3582) and read at 490 nm on a Bio-Tek Synergy-HT Microplate Reader. Results were plotted as relative absorbance (relative to control sample with no virus) against increasing viral MOI. Samples were conducted in six wells each and statistical significance was determined using the students T-test with a threshold of p<0.05.
For a second experiment, the same viral constructs were used to infect cancer cells at a constant 50 MOI. […] After the treatment period, cell survival was assessed using […] […]

`Nc1nc(O)c2ncn(COC(CO)CO)c2n1` [GCV, 2-amino-9-{[(1,3-dihydroxypropan-2-yl)oxy]methyl}-6,9-dihydro-3H-purin-6-one] was tested. Which “cell survival with GCV in the absence of adenovirus” value did it give?
Its value is “decrease in survival”.
